According to patent US20120135053A1, “NANOPARTICULATE TELMISARTAN COMPOSITIONS AND PROCESS FOR THE PREPARATION THEREOF” (priority 2009, published 2012):
Where two headings read alike, the source gives them in different places.

Tests used:
[1] = Comparative dissolution test in distillate water; assay type: physicochemical; details: UV-VIS
Protocol: The suspension was stirred for 1, 5, 10, 20 and 60 minutes and then it was filtered by 0.2 μm disposable syringe filter. Telmisartan concentration was determined by UV-VIS spectrophotometer (Agilent 8453).

[2] = Visual observation of wettability by stereomicroscope; assay type: physicochemical; details: one drop of distillate water on 0.1 mg powder
[3] = cited from earlier work
[4] = cited from earlier work; remark: listed apart in the source
[5] = in vivo; details: male, Wistar, rat, po, 30 mg/kg
Protocol: Both test substances were administered via gastric tube in a dosing volume of 5 ml/kg. The vehicle of the test items was sterile 0.9% NaCl solution and the suspension was kept homogenous by continuous stirring during treatment in order to minimize the error resulting from the sedimentation.
Male Wistar rats (purchased from Laboratory Animal Center, University of Szeged) were maintained on a standard pellet rodent diet (Bioplan Ltd, Isaszeg, Hungary) under temperature and light-controlled conditions with tap water available ad libitum. The acclimatization period was at least 4 days. […] All animals were fasting for 16 hours before oral treatment. […] Water was available immediately after treatment for all animals. […] Serum samples were prepared by centrifugation (7000 rpm, 10 min, 4° C.) of the clotted blood within 60 minutes and were stored at −20° C. till analysis.
An aliquot of 200 μl serum was combined with 20 μl of internal standard working solution and 1.2 ml acetonitrile for protein precipitation. The mixture was vortexed for 1 min and centrifuged at 12000 rpm for 10 min at 4° C. The supernatants were evaporated to dryness under a stream of nitrogen at 40° C. and reconstituted with 200 μl of water—methanol (50:50 v/v) and 20 μl was injected into the HPLC system.
Unpaired t-test was used to statistically compare the serum concentrations belonging to the same time points. […]

[6] = test system: plasma proteins, mainly albumin and α1—acid glycoprotein; details: cited from earlier work

## CCCc1nc2c(C)cc(-c3nc4ccccc4n3C)cc2n1Cc1ccc(-c2ccccc2C(=O)O)cc1 [Telmisartan, 4′-[(1,4′-dimethyl-2′-propyl [2,6′-bi-1H-benzimidazol]-1′-yl)methyl]-[1,1′-biphenyl]-2-carboxylic acid]
[1]
  dissolved Telmisartan content: cannot be detected
[2]
  wettability: stayed in their aggregated state
[3]; 40 mg tablet
  reduction in AUC by food: about 6%
[3]; 40 mg
  absolute bioavailability: 42%
[3]; 160 mg dose
  reduction in AUC by food: about 20%
[3]; 160 mg
  absolute bioavailability: 58%
[3]; after a single dose
  glucuronide share of the measured radioactivity in plasma: approximately 11%
[3]; in vivo
  involvement of cytochrome P450 isoenzymes in metabolism: not involved
  terminal elimination half life: approximately 24 hours
  total plasma clearance: > 800 mL/min
  volume of distribution: approximately 500 liters
[3]; intravenous 14C-labeled Telmisartan
  amount found in urine, % of total radioactivity: 0.91%
[3]; intravenous or oral 14C-labeled Telmisartan
  administered dose eliminated unchanged in feces via biliary excretion: > 97%
[3]; once daily dosing
  plasma concentrations with once daily dosing, % of peak plasma concentrations: 10-25%
[3]; oral 14C-labeled Telmisartan
  amount found in urine, % of total radioactivity: 0.49%
[3]; repeated once daily dosing
  accumulation index in plasma: 1.5 to 2.0
[4]; hydrochloric acid
  solubility: insoluble
[4]; strong acid
  solubility: sparingly soluble
[4]; strong base
  solubility: soluble
[4]; water and pH range of 3 to 9
  solubility: practically insoluble
[5]
  AUC: 15.7 µg·h/mL
[6]
  plasma protein binding: > 99.5%
